# Measurements as given in patent publication US20240130988A1, “Use of stilbene compounds in the preparation of anti-tumor drugs” (Guangzhou AnHao Pharmaceutical Technology CO., LTD., priority 2022, published 2024).
# Marks after values point to notes of the source that are not given here.
# Assays:
# [1] = tested on: LLC (mouse lung cancer cells); assay: Enrichment of CD8+ cytotoxic T lymphocytes in tumor tissue, Lewis non-small cell lung cancer model of mice; assay type: in vivo; conditions: 400 mg/kg ip once a day for 10 days; for The ratio of CD8^+ in total immune cells of tumor tissues (%): flow cytometry; for The ratio of distribution area in tumor tissues (%): CD8+ immunohistochemistry
# Description: LLC (mouse lung cancer cells) were a mouse Lewis lung cancer cells.
# The modeling method for LLC cell lung cancer in mice was as follows:
# LLC cells were cultured in the general medium containing 10% fetal bovine serum and 100 μg/mL of double antibody (penicillin±streptomycin), and then cultivated in a 37° C., 5% CO2 cell incubator for routine incubation. LLC cells, that had grown to logarithmic phase, were digested with 0.25% trypsin (containing EDTA) to form a cell suspension, which was centrifuged at 1000 rpm/min for 3 min. The supernatant was discarded, and cell precipitates were collected, that were resuspended in culture medium without serum and double antibody. The cell suspension was further centrifuged to adjust the volume under the same conditions with the aid of cell counting, so as to prepare a cell suspension at a concentration of […] was injected into the right abdomen of each mouse, to complete the inoculation of tumor cells. The tumor was allowed to grew about 10 days, and the volume reached around 100 mm^3, before the mice were treated with test compounds.
# Drug preparation: compounds 1-13 of the present invention were respective prepared into an injection with injection water.
# Experimental methods: The model mice with LLC cell lung cancer were treated by intraperitoneal administration of 400 mg/kg injection containing the compound of the present invention. The model mice were divided into a negative control group (model mice only receiving equal volume of injection water by intraperitoneal administration) and treatment groups (model mice receiving the injection prepared with the compound of the present invention by intraperitoneal administration). The intraperitoneal injection regimen was carried out by injecting once a day at the pre-determined time. Before administration, the mice were weighed, and then treated with the injection at a dosage of 10 mL/kg, After successive administration for 10 days, that is, on the 10th day after receiving treatment, the mice were sacrificed, and the subcutaneous tumors were stripped to detect the ratio of cytotoxic T lymphocyte antigen CD8^+ in tumor tissues of the negative group and the treatment group by flow cytometry.
# CD8^+ tumor-infiltrating lymphocytes in tumor tissues were detected by flow cytometry. The specific steps were as follows:
# The mice were sacrificed, and then the abdominal epidermis of the mice was cut open using ophthalmic scissors, to fully expose the subcutaneous tumors. The subcutaneous tumor tissues on the right side of the mouse's abdomen were gradually peeled off with tweezers and ophthalmic scissors. After rinsing with PBS, the stripped tumor tissues were cut into about 1 mm using ophthalmic scissors, and then placed in 3 mL of PBS buffer containing 100 μg/mL of hyaluronidase. A centrifuge tube containing a dispersed liquid was placed in a water bath and kept at 37° C. for 20 min. A pipette was used to blow and shake the digestive tumor tissues every 5 minutes to fully digest. The dispersed liquid containing undigested tumor tissues was filtered through a 70 μm stainless steel cell screen, and the remaining undigested tumor tissues were ground using a push rod of 20 mL syringe on 70 μm cell screen and rinsed 5 times with 1 mL of PBS while grinding. The cell suspension passing the cell screen was transferred to a 15 mL centrifuge tube, and centrifuged at 4000 rpm for 3 min. Then, cell precipitates were collected, to which was added 2 mL of red cell lysis buffer, and rested for 10 min, followed by centrifuging at 4000 rpm for 3 min. After washing with PBS, the cells were resuspended by adding 2-3 mL of PBS.
# An appropriate amount of cell suspension was used as the sample for flow cytometry, and after counting, the cell suspension was adjusted to have a concentration of 5×10^6/mL. 100 μL of cell suspension was added to a test tube with a pipettor. […]
# [2] = tested on: human ovarian cancer A2780; assay: Human ovarian cancer A2780 transplanted tumor in nude mice; assay type: in vivo, BALB/C nude mice; conditions: A2780, 200 mg/kg ip × 14
# Description: A human ovarian cancer A2780 model transplanted into nude mice was used in the experiment to investigate the anti-tumor effect of test compounds.
# (§1) Preparation: The compound was prepared as the injection at the desired concentration with sterile normal saline, prior to administration.
# (§2) Animal strain: BALB/C nude mice (SPF grade), weight: 19-21 g, gender: male.
# (§3) Number of animals in each treatment group: 8; number of animals in the control group: >12.
# (§4) The tumor blocks of human ovarian cancer A2780 growing well were cut into uniform small pieces of 3 mm under sterile conditions, and then subcutaneously inoculated into the right armpit of each mouse with a cannula. The mice were divided into 9 groups, 8 mice for each treatment group, while >12 mice were included in the control group.
# (§5) 14 days after inoculation, the average volume of the tumor block was about 100 mm^3. The animals were regrouped based on the size of the tumor, and the animals with tumors that were too large and too small were sifted out. For each group, the average volume of tumors was basically the same, and then the mice were initially treated with test compounds. The mice were intraperitoneally injected once a day for 14 days, at a dosage of 0.2 mL/20 g body weight; the mice in the control group were given the same volume of sterile normal saline. From the 14th day of inoculation, the long diameter a (mm) of the tumor, together with the perpendicular short diameter b (mm), was measured using a digital electronic caliper, twice a week. The calculation formula of tumor volume is: TV=ab^2/2, and the formula for calculating the relative tumor volume is RTV=Vt/Vo, wherein Vo denotes the tumor volume measured when the mice were divided into groups (i.e. d1), and Vt is the tumor volume from each measurement.
# (§6) The result determination is based on the following formula: […]
# [3] = tested on: human prostate cell LNCaP; assay: Human prostate cell LNCaP transplanted tumor in nude mice; assay type: in vivo, BALB/C nude mice
# Description: A human prostate cell LNCaP model transplanted into nude mice was used in the experiment to investigate the anti-tumor effect of test compounds.
# as §1, §2, §3
# as §4, with “prostate cell LNCaP with good growth” for “ovarian cancer A2780 growing well”, “group,” for “group.”
# as §5, with “sifted out,” for “sifted out.”, “volume is: RTV=Vt/[…],” for “volume is RTV=Vt/Vo,”, “Vt denotes” for “Vt is”
# as §6
Compound,The ratio of CD8^+ in total immune cells of tumor tissues (%) [1],RTV (d 18) [2],Tumor inhibitory rate % [2],The ratio of distribution area in tumor tissues (%) [1],RTV (d 18) ([3]; 200 mg/kg ip × 14),Tumor inhibitory rate % ([3]; 200 mg/kg ip × 14),"Tumor inhibitory rate % ([3]; 200 mg/kg ip × 14, 200 mg/kg)","Tumor inhibitory rate % ([3]; 200 mg/kg ip × 14, listed as compound 4, 200 mg/kg)",The ratio of CD8^+ in total immune cells of tumor tissues (%) ([1]; 400 mg/kg),Tumor inhibitory rate % ([2]; listed as compound 6)
"COc1ccc(/C=C(/C(=O)O)c2cc(OC)c(OC)c(OC)c2)c(F)c1O [Compound 9, (E)-3-(2-fluoro-3-hydroxy-4-methoxyphenyl)-2-(3,4,5-trimethoxyphenyl)acrylic acid]",0.0753 ± 0.0123%,4.37 ± 0.62,57.61^# %,,,,,,,
"COc1cc(/C=C(/C(=O)O)c2cc(OC)c(OC)c(OC)c2)cc(OC)c1 [Compound 3, (E)-3-(3,5-dimethoxyphenyl)-2-(3,4,5-trimethoxyphenyl)acrylic acid]",0.0762 ± 0.0103%,,,6.731 ± 0.5692%,4.77 ± 0.71,60.87^## %,,,,
COc1cc(/C=C(/C(=O)[O-])c2cc(OC)c(OC)c(OC)c2)cc(OC)c1F.[K+] [Compound 10],0.0623 ± 0.0114%,4.26 ± 0.73,58.68^# %,5.847 ± 0.6349%,4.55 ± 0.81,62.67^# %,,,,
"COc1cc(/C(=C\c2cc(O)c(OC)c(F)c2)C(=O)O)cc(OC)c1OC [Compound 8, (E)-3-(5-fluoro-3-hydroxy-4-methoxyphenyl)-2-(3,4,5-trimethoxyphenyl)acrylic acid]",0.0735 ± 0.0127%,5.21 ± 0.47,49.47^## %,,6.72 ± 0.85,44.87^## %,,,,
"COc1ccc(/C=C(/C(=O)O)c2cc(OC)c(OC)c(OC)c2)cc1F [Compound 4, (E)-3-(3-fluoro-4-methoxyphenyl)-2-(3,4,5-trimethoxyphenyl)acrylic acid]",0.0787 ± 0.0122%,4.51 ± 0.67,56.26^## %,6.872 ± 0.7633%,3.73 ± 0.60,,69.40%,best inhibitory effect on prostate cancer,,
"COc1cc(/C(=C\c2cc(O)c(OC)c(O)c2)C(=O)O)cc(OC)c1OC [Compound 11, (E)-3-(3,5-dihydroxy-4-methoxyphenyl)-2-(3,4,5-trimethoxyphenyl)acrylic acid]",0.0653 ± 0.0122%,,,,,,,,,
"COc1ccc(/C=C(/C(=O)O)c2cc(OC)c(OC)c(OC)c2)c(O)c1O [Compound 1, (E)-3-(2,3-dihydroxy-4-methoxyphenyl)-2-(3,4,5-trimethoxylphenyl)acrylic acid]",,5.63 ± 0.72,45.39^## %,,4.92 ± 0.82,56.27^## %,,,0.0605 ± 0.0124%,
"COc1ccc(/C=C(/C(=O)O)c2cc(OC)c(OC)c(OC)c2)cc1O [Compound 6, (E)-3-(3-hydroxy-4-methoxyphenyl)-2-(3,4,5-trimethoxyphenyl)acrylic acid]",0.0814 ± 0.0118%,3.58 ± 0.49,65.28%,,4.27 ± 0.92,64.97^# %,,,,best inhibitory effect on ovarian cancer
